Structures are written as SMILES. Activity calls are given as the source filed them. The rule behind the calls is not given here.

Broadly, the inhibition is the relative decrease from the control value, in per cent.

Data set [1] deals with T1, Steroidogenic acute regulatory protein, mitochondrial (Mus musculus) (UniProt P51557).
T1 sequence (whole entry): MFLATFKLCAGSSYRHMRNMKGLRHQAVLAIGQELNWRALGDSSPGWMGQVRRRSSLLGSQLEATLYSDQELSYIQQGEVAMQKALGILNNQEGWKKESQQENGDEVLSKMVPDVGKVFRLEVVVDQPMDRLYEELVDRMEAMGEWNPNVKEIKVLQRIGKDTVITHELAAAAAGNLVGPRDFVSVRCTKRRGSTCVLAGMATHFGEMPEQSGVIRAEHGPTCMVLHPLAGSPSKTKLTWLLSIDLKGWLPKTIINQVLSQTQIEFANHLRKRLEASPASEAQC
The data set can be described thus: Inhibition of STAR in mouse MA-10 cells assessed as inhibition of dbcAMP-stimulated […] at 10 uM after 2 hrs by RIA. The data set is classed as cell-based.

Data set [2] can be described thus: Inhibition of 22R-hydroxycholesterol-induced steroidogenesis in mouse MA-10 cells assessed as progesterone synthesis per mg of protein at 10 uM after 2 hrs by RIA. The note with it: ma-10, 2 h. The data set is classed as cell-based.

As to `C[C@]12CC[C@H]3[C@@H](CC=C4C[C@@H](O)CC[C@@]43C)[C@@H]1C/C(=C/c1ccc(OC(F)F)cc1)[C@@H]2O`, the inhibition in data set [1] came to 50%. Moreover, the Activity in data set [2] is recorded as 923 ng.
`C[C@H](CCC(=O)O)[C@H]1CC[C@H]2[C@@H]3CC=C4C[C@@H](O)CC[C@]4(C)[C@H]3CC[C@]12C`: the inhibition entry in data set [1] was “inactive”.
With `C[C@]12CC(O)[C@H]3[C@@H](CCC4=CC(=O)CC[C@@]43C)[C@@H]1CC[C@@H]2C(=O)O` (stereo partly drawn), in data set [1], the inhibition entry is “inactive”.
On to `CC(=O)O[C@H]1CC[C@@]2(C)C(=CC[C@H]3[C@@H]4CC(O)[C@H]([C@H](C)OC(C)=O)[C@@]4(C)CC[C@@H]32)C1` (stereo partly drawn), for which, in data set [1], the inhibition entry was “inactive”.
For the compound `C[C@]12CCC(=O)C=C1CC[C@@H]1[C@@H]2[C@@H](O)C[C@@]2(C)[C@H]1CC[C@]2(O)C(=O)CO`, the inhibition result in data set [1] was “inactive”.
With `CC(=O)OCC(=O)[C@H]1CC[C@H]2[C@@H]3CC=C4C[C@@H](O)CC[C@]4(C)[C@H]3CC[C@]12C`, the inhibition in data set [1] was 50%. Moreover, the Activity in data set [2] stood at 1301 ng.

Values taken from ChEMBL document CHEMBL2029232, “Identification of small-molecule inhibitors of the steroidogenic acute regulatory protein (STARD1) by structure-based design” (Bioorg Med Chem Lett, 2012).
